Test results from patent US8633186B2, “Modulation of chemosensory receptors and ligands associated therewith” (Senomyx Inc., priority 2007, dated 2014).
Values belong to the molecule of their own block, whether it stands above or below them.

Key:
[1] = test system: human panelists (perceived sweetness intensity); test: Sweet flavor and sweet flavor enhancement, human panelists, scaling test; type: in vivo; set-up: key: 0-15 line scale; 0 = no sweetness, 15 = 15% sucrose sweetness
Source text: Test samples containing experimental compounds were compared to a dose-response curve for perceived sweetness intensity of sweeteners (such as, for example, sucralose, sucrose, fructose and other sweeteners) concentrations to determine equivalent sweetness intensity.
A group of eight or more panelists tasted solutions including sweeteners at various concentrations, as well as the experimental compound both with and without added sweetener. Panelists then rated sweetness intensity of all samples on a structured horizontal line scale, anchored from 0 to 15, where 0 equals no sweetness and 15 equals equivalent sweetness to a 15% sucrose sample. Scores for sweetness intensity were averaged across panelists. Then using the average scores and/or equation of the line for the sweetener dose-response curve, equivalent sweetness concentrations were determined for the samples containing experimental compounds.
Subjects had been previously familiarized with the key attribute taste and were trained to use the 0 to 15 point line scale. Subjects refrained from eating or drinking (except water) for at least 1 hour prior to the test. Subjects ate a cracker and rinsed with water several times to clean the mouth.
Sweetener solutions are provided at a wide range of concentrations such as 100 ppm, 200 ppm, 300 ppm, 400 ppm, and 500 ppm for sucralose, or between 0% and 12% for sucrose or fructose, in order to create a dose-response curve. Samples containing experimental compound were prepared both alone and in a 100 ppm sucralose solution or a 6% sucrose or fructose solution. All samples were made up in low sodium buffer pH 7.1. In order to aid dispersion, solutions can be made up in 0.1% ethanol.
The solutions were dispensed in 20 ml volumes into 1 oz. sample cups and served to the subjects at room temperature. All samples were presented in randomized counterbalanced order to reduce response bias. Further, two sessions of testing may be used to check panel precision.
Subjects tasted each sample individually and rate sweetness intensity on the line scale prior to tasting the next sample. All samples were expectorated. Subjects may retaste the samples but can only use the volume of sample given. Subjects must rinse with water between samples. Eating an unsalted cracker between samples may be required depending on the samples tasted.
The scores for each sample were averaged across subjects and standard error was calculated. The dose-response curve was plotted graphically, and this may be used to ensure the panel is rating accurately; i.e., increasing the concentration of sucralose should correspond to increased average scores for sweetness. A 2-way ANOVA (factors being samples and panelists) and multiple comparison tests (such as Tukey's Honestly Significant Difference test) can be used to determine differences among samples and/or panelists. A 3-way ANOVA, with sessions as the third factor, can be used to determine if there is any difference in the ratings between sessions.

melting point: > 250 °C
SMILES: N#Cc1c(N)c2ccccc2[nH]c1=O [Example 71, 4-Amino-2-oxo-1,2-dihydroquinoline-3-carbonitrile]

melting point: > 260 °C
SMILES: Cc1sc2[nH]c(=O)nc(N)c2c1C.Cl

SMILES: OC[C@H]1O[C@H](O[C@]2(CCl)O[C@H](CCl)[C@@H](O)[C@@H]2O)[C@H](O)[C@@H](O)[C@H]1Cl [Sucralose, sucralose]
Average sweetness score (line scale 0 to 15) ([1]; Table 1, 100 ppm sucralose alone): 6.3 | Average sweetness score (line scale 0 to 15) ([1]; Table 1, 200 ppm sucralose alone): 10.4 | Average sweetness score (line scale 0 to 15) ([1]; Table 1, 300 ppm sucralose alone): 11.5 | Average sweetness score (line scale 0 to 15) ([1]; Table 1, 400 ppm sucralose alone): 12.3 | Average sweetness score (line scale 0 to 15) ([1]; Table 3, 100 ppm sucralose alone): 7.4 | Average sweetness score (line scale 0 to 15) ([1]; Table 3, 200 ppm sucralose alone): 10.4 | Average sweetness score (line scale 0 to 15) ([1]; Table 3, 300 ppm sucralose alone): 10.5 | Average sweetness score (line scale 0 to 15) ([1]; Table 3, 400 ppm sucralose alone): 11.2 | Average sweetness score (line scale 0 to 15) ([1]; Table 3, 600 ppm sucralose alone): 13.0 | Average sweetness score (line scale 0 to 15) ([1]; Table 4, 100 ppm sucralose alone): 6.3 | Average sweetness score (line scale 0 to 15) ([1]; Table 4, 200 ppm sucralose alone): 9.5 | Average sweetness score (line scale 0 to 15) ([1]; Table 4, 300 ppm sucralose alone): 10.3 | Average sweetness score (line scale 0 to 15) ([1]; Table 4, 400 ppm sucralose alone): 12.1 | Average sweetness score (line scale 0 to 15) ([1]; Table 6, 100 ppm sucralose alone): 6.5 | Average sweetness score (line scale 0 to 15) ([1]; Table 6, 200 ppm sucralose alone): 9.1 | Average sweetness score (line scale 0 to 15) ([1]; Table 6, 300 ppm sucralose alone): 10.8 | Average sweetness score (line scale 0 to 15) ([1]; Table 6, 400 ppm sucralose alone): 11.2 | Average sweetness score (line scale 0 to 15) ([1]; Table 17, 100 ppm sucralose alone): 6.5 | Average sweetness score (line scale 0 to 15) ([1]; Table 17, 200 ppm sucralose alone): 9.0 | Average sweetness score (line scale 0 to 15) ([1]; Table 17, 300 ppm sucralose alone): 10.9 | Average sweetness score (line scale 0 to 15) ([1]; Table 17, 400 ppm sucralose alone): 12.3 | Average Sweetness ([1]; Table 28, 50 ppm sucralose alone, n = 28): 4.3 | Average Sweetness ([1]; Table 28, 100 ppm sucralose alone, n = 28): 6.2 | Average Sweetness ([1]; Table 28, 150 ppm sucralose alone, n = 28): 8.2 | Average Sweetness ([1]; Table 28, 200 ppm sucralose alone, n = 28): 8.9 | Average Sweetness ([1]; Table 28, 300 ppm sucralose alone, n = 28): 10.3

SMILES: CCc1sc2[nH]c(=O)nc(N)c2c1C [Example 7, 4-Amino-6-ethyl-5-methylthieno[2,3-d]pyrimidin-2(1H)-one]
Average sweetness score (line scale 0 to 15) ([1]; Table 2, 100 μM compound alone in low sodium buffer): 0.1

SMILES: OC[C@H]1O[C@@](CO)(O[C@H]2O[C@H](CO)[C@@H](O)[C@H](O)[C@H]2O)[C@@H](O)[C@@H]1O [Sucrose, sucrose]
Average sweetness score (line scale 0 to 15) ([1]; Table 5, 2% sucrose alone): 2.4 | Average sweetness score (line scale 0 to 15) ([1]; Table 7, 2% sucrose alone): 1.8 | Average sweetness score (line scale 0 to 15) ([1]; Table 8, 6% sucrose alone): 6.6 | Average sweetness score (line scale 0 to 15) ([1]; Table 8, 8% sucrose alone): 8.1 | Average sweetness score (line scale 0 to 15) ([1]; Table 8, 9% sucrose alone): 8.6 | Average sweetness score (line scale 0 to 15) ([1]; Table 8, 10% sucrose alone): 9.6 | Average sweetness score (line scale 0 to 15) ([1]; Table 9, 2% sucrose alone): 2.2 | Average sweetness score (line scale 0 to 15) ([1]; Table 9, 4% sucrose alone): 4.0 | Average sweetness score (line scale 0 to 15) ([1]; Table 9, 6% sucrose alone): 5.5 | Average sweetness score (line scale 0 to 15) ([1]; Table 10, 6% sucrose alone): 7.3 | Average sweetness score (line scale 0 to 15) ([1]; Table 10, 8% sucrose alone): 7.9 | Average sweetness score (line scale 0 to 15) ([1]; Table 10, 9% sucrose alone): 8.6 | Average sweetness score (line scale 0 to 15) ([1]; Table 10, 10% sucrose alone): 9.6 | Average sweetness score (line scale 0 to 15) ([1]; Table 11, 2% sucrose alone): 2.1 | Average sweetness score (line scale 0 to 15) ([1]; Table 11, 4% sucrose alone): 3.9 | Average sweetness score (line scale 0 to 15) ([1]; Table 11, 6% sucrose alone): 5.7 | Average sweetness score (line scale 0 to 15) ([1]; Table 12, 6% sucrose alone): 6.8 | Average sweetness score (line scale 0 to 15) ([1]; Table 12, 8% sucrose alone): 8.3 | Average sweetness score (line scale 0 to 15) ([1]; Table 12, 9% sucrose alone): 8.6 | Average sweetness score (line scale 0 to 15) ([1]; Table 12, 10% sucrose alone): 9.5 | Average sweetness score (line scale 0 to 15) ([1]; Table 13, 2% sucrose alone): 1.9 | Average sweetness score (line scale 0 to 15) ([1]; Table 13, 4% sucrose alone): 3.9 | Average sweetness score (line scale 0 to 15) ([1]; Table 13, 6% sucrose alone): 5.5 | Average sweetness score (line scale 0 to 15) ([1]; Table 14, 6% sucrose alone): 6.5 | Average sweetness score (line scale 0 to 15) ([1]; Table 14, 8% sucrose alone): 8.5 | Average sweetness score (line scale 0 to 15) ([1]; Table 14, 9% sucrose alone): 8.7 | Average sweetness score (line scale 0 to 15) ([1]; Table 14, 10% sucrose alone): 9.7 | Average sweetness score (line scale 0 to 15) ([1]; Table 15, 6% sucrose alone): 7.0 | Average sweetness score (line scale 0 to 15) ([1]; Table 15, 8% sucrose alone): 8.4 | Average sweetness score (line scale 0 to 15) ([1]; Table 15, 9% sucrose alone): 9.0 | Average sweetness score (line scale 0 to 15) ([1]; Table 15, 10% sucrose alone): 9.1 | Average sweetness score (line scale 0 to 15) ([1]; Table 16, 2% sucrose alone): 2.0 | Average sweetness score (line scale 0 to 15) ([1]; Table 16, 4% sucrose alone): 4.1 | Average sweetness score (line scale 0 to 15) ([1]; Table 16, 6% sucrose alone): 5.7 | Average sweetness score (line scale 0 to 15) ([1]; Table 18, 2% sucrose alone): 2.4 | Average sweetness score (line scale 0 to 15) ([1]; Table 18, 4% sucrose alone): 4.2 | Average sweetness score (line scale 0 to 15) ([1]; Table 18, 6% sucrose alone): 5.9 | Average sweetness score (line scale 0 to 15) ([1]; Table 19, 6% sucrose alone): 7.3 | Average sweetness score (line scale 0 to 15) ([1]; Table 19, 8% sucrose alone): 8.6 | Average sweetness score (line scale 0 to 15) ([1]; Table 19, 9% sucrose alone): 9.1 | Average sweetness score (line scale 0 to 15) ([1]; Table 19, 10% sucrose alone): 9.7 | Average sweetness score (line scale 0 to 15) ([1]; Table 20, 2% sucrose alone): 8.6 | Average sweetness score (line scale 0 to 15) ([1]; Table 20, 4% sucrose alone): 9.1 | Average sweetness score (line scale 0 to 15) ([1]; Table 20, 6% sucrose alone): 9.7 | Average sweetness score (line scale 0 to 15) ([1]; Table 21, 6% sucrose alone): 6.5 | Average sweetness score (line scale 0 to 15) ([1]; Table 21, 8% sucrose alone): 8.3 | Average sweetness score (line scale 0 to 15) ([1]; Table 21, 9% sucrose alone): 9.4 | Average sweetness score (line scale 0 to 15) ([1]; Table 21, 10% sucrose alone): 9.4 | Average sweetness score (line scale 0 to 15) ([1]; Table 22, 6% sucrose alone): 6.5 | Average sweetness score (line scale 0 to 15) ([1]; Table 22, 8% sucrose alone): 8.2 | Average sweetness score (line scale 0 to 15) ([1]; Table 22, 9% sucrose alone): 9.2 | Average sweetness score (line scale 0 to 15) ([1]; Table 22, 10% sucrose alone): 9.4 | Average sweetness score (line scale 0 to 15) ([1]; Table 23, 6% sucrose alone): 6.8 | Average sweetness score (line scale 0 to 15) ([1]; Table 23, 8% sucrose alone): 8.7 | Average sweetness score (line scale 0 to 15) ([1]; Table 23, 9% sucrose alone): 9.5 | Average sweetness score (line scale 0 to 15) ([1]; Table 23, 10% sucrose alone): 9.5 | Average sweetness score (line scale 0 to 15) ([1]; Table 24, 6% sucrose alone): 6.5 | Average sweetness score (line scale 0 to 15) ([1]; Table 24, 8% sucrose alone): 8.4 | Average sweetness score (line scale 0 to 15) ([1]; Table 24, 9% sucrose alone): 9.2 | Average sweetness score (line scale 0 to 15) ([1]; Table 24, 10% sucrose alone): 9.4 | Average sweetness score (line scale 0 to 15) ([1]; Table 25, 6% sucrose alone): 6.7 | Average sweetness score (line scale 0 to 15) ([1]; Table 25, 8% sucrose alone): 8.1 | Average sweetness score (line scale 0 to 15) ([1]; Table 25, 9% sucrose alone): 9.3 | Average sweetness score (line scale 0 to 15) ([1]; Table 25, 10% sucrose alone): 9.2 | Average Sweetness ([1]; Table 26, 6% Sucrose alone, n = 24): 6.2 | Average Sweetness ([1]; Table 26, 8% Sucrose alone, n = 24): 8.3 | Average Sweetness ([1]; Table 26, 9% Sucrose alone, n = 24): 9.3 | Average Sweetness ([1]; Table 26, 10% Sucrose alone, n = 24): 9.8 | Average Sweetness ([1]; Table 26, 12% Sucrose alone, n = 24): 11.1 | Average Sweetness ([1]; Table 27, 6% Sucrose alone, n = 30): 6.7 | Average Sweetness ([1]; Table 27, 8% Sucrose alone, n = 30): 8.3 | Average Sweetness ([1]; Table 27, 10% Sucrose alone, n = 30): 10.3 | Average Sweetness ([1]; Table 27, 12% Sucrose alone, n = 30): 11.2 | Average Sweetness ([1]; Table 30, 2% Sucrose alone, n = 30): 2.3 | Average Sweetness ([1]; Table 30, 4% Sucrose alone, n = 30): 4.2 | Average Sweetness ([1]; Table 30, 6% Sucrose alone, n = 30): 5.8 | Average Sweetness ([1]; Table 31, 6% Sucrose alone, n = 28): 6.8 | Average Sweetness ([1]; Table 31, 8% Sucrose alone, n = 28): 8.5 | Average Sweetness ([1]; Table 31, 9% Sucrose alone, n = 28): 8.6 | Average Sweetness ([1]; Table 31, 10% Sucrose alone, n = 28): 9.6 | Average Sweetness ([1]; Table 32, 2% Sucrose alone, n = 28): 2.3 | Average Sweetness ([1]; Table 32, 4% Sucrose alone, n = 28): 4.5 | Average Sweetness ([1]; Table 32, 6% Sucrose alone, n = 28): 5.8
